Results reported in publication doi:10.1101/423061v1, “Comparative analysis of PknB inhibitors for reactivity and toxicity” (biorxiv, 2018).

Target: PknB (Mycobacterium tuberculosis, UniProt P9WI81)
Assay: ATP Glo kinase assay, GarA as protein substrate
Format: biochemical

Chain of PknB (P9WI81 1-331 limits assumed): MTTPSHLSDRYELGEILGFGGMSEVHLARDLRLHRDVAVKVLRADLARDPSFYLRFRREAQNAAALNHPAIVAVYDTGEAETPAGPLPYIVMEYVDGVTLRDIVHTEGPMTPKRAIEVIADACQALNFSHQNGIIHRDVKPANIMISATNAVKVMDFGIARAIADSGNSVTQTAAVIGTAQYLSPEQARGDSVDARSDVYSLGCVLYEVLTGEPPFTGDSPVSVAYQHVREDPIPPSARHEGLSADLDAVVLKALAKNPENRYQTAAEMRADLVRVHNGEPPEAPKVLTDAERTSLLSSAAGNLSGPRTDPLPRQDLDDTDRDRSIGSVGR

`COC(=O)/C=C/C(=O)c1ccc(OC)cc1` [YH-8, trans-Methyl-4-(4-methoxyphneyl)-4-oxobut-2-enoate] showed an IC50 of 6.6 µM.
